# Legend:
# Streptococcus = test: MIC and MBC assays; type: cell-based; conditions: compound alone, no antibiotic
# Method: (§1) MIC was defined by the lowest concentration of the test compound that inhibits visible growth of pathogen of interest. The optical density of the pathogen of interest culture was measured by OD600.
# (§2) MBC was determined colony forming units (CFUs) enumeration by serially diluting and plating bacterial cultures on BHI plates.
# (§3) Thus, no antibiotic was used in Table 2.
# E. faecalis = test: MIC and MBC assays; type: cell-based; conditions: Enterococcus faecalis, compound alone, no antibiotic; for MIC: overnight (18 hrs)
# Method: as §1, §2, §3
# MRSA [1] = test: Effect of combination with Oxacillin on MRSA, CFU counts; type: cell-based, Methicillin-resistant Staphylococcus aureus; conditions: compound 25 μM in combination with Oxacillin 9 μM, 37° C. 18 h
# Method: (§4) The mixture (200 μL) was incubated at 37° C. for 18 h. A control without the test compound was performed in the same way.
# MRSA [2] = test: Minimum Inhibitory Concentration (MIC) and Minimum Bactericidal Concentration (MBC) assays; type: cell-based, Methicillin-resistant Staphylococcus aureus; conditions: Staphylococcus aureus, compound alone, no antibiotic; for MIC: 18 h, overnight (18 hrs), read-out: MIC
# Method: as §1, §2, §3
# MRSA [3] = test: Effect of compound alone on MRSA, CFU counts; type: cell-based, Methicillin-resistant Staphylococcus aureus; conditions: compound 25 μM alone, 37° C. 18 h
# Method: as §4
# E. faecalis OG1RF [4] = test: Combination with Gentamicin in vivo, mouse model of CAUTI, OG1RF; parameters: species or system Enterococcus faecalis; conditions: C57BL/6Ncr mice
# Method: (§5) Mice used in this study were six-week-old female wild-type C57BL/6Ncr mice. Mice were anesthetized by inhalation of isoflurane and implanted with a 5-mm length of platinum-cured silicone catheter. […] Mice were sacrificed at 48 hours post-infection by cervical dislocation after anaesthesia inhalation, and the bladders were aseptically harvested. Subsequently, the silicone implant was retrieved from the bladder. Catheters were placed in 1×PBS (1 mL), sonicated for 10 min, to detach E. faecalis and bladders were homogenized in 1×PBS (1 mL). For bacterial enumeration on catheters and bladder, samples were serially diluted and plated on BHI for CFU enumeration.
# E. faecalis OG1RF [5] = test: Combination with Vancomycin in vivo, mouse model of CAUTI, OG1RF (vancomycin sensitive); parameters: species or system Enterococcus faecalis; conditions: C57BL/6Ncr mice
# Method: as §5, with “catheter. Then, mice were infected immediately following catheter implantation with 50 μl of ˜2×10^7 CFU of E. faecalis OG1RF (FIG. 10A and FIG. 10B) or V583 (FIG. 11A and FIG. 11B) in PBS (1 mL) was introduced in the bladder lumen by transurethral inoculation.” for “catheter.”
# E. faecalis OG1RF [6] = test: Stand alone activity in vivo, mouse model of catheter-associated urinary tract infection (CAUTI); parameters: species or system Enterococcus faecalis; conditions: C57BL/6Ncr mice; 10 mg/kg intraperitoneally 24 hours post-infection; sacrificed 48 hours post-infection; compound alone
# Method: as §5, with “catheter. Then, mice were infected immediately following catheter implantation with 50 μl of ˜2×10^7 CFU of E. faecalis OG1RF in PBS (1 mL) was introduced in the bladder lumen by transurethral inoculation.” for “catheter.”, “mL).” for “mL). For bacterial enumeration on catheters and bladder, samples were serially diluted and plated on BHI for CFU enumeration.”
# Mice used in this study were six-week-old female wild-type C57BL/6Ncr mice. Mice were anesthetized by inhalation of isoflurane and implanted with a 5-mm length of platinum-cured silicone catheter.
# Mice were sacrificed at 48 hours post-infection by cervical dislocation after anaesthesia inhalation, and the bladders were aseptically harvested. Subsequently, the silicone implant was retrieved from the bladder. Catheters were placed in 1×PBS (1 mL), sonicated for 10 min, to detach E. faecalis and bladders were homogenized in 1×PBS (1 mL). For bacterial enumeration on catheters and bladder, samples were serially diluted and plated on BHI for CFU enumeration.
# [7] = test system: vancomycin resistant E. faecalis V583; test: Combination with Vancomycin in vivo, mouse model of CAUTI, V583 (vancomycin resistant); parameters: species or system Enterococcus faecalis; conditions: C57BL/6Ncr mice
# Method: as §5, with “catheter. Then, mice were infected immediately following catheter implantation with 50 μl of ˜2×10^7 CFU of E. faecalis OG1RF (FIG. 10A and FIG. 10B) or V583 (FIG. 11A and FIG. 11B) in PBS (1 mL) was introduced in the bladder lumen by transurethral inoculation.” for “catheter.”
# [8] = test system: Vancomycin Resistant Enterococcus (VRE) strain V583; test: Effect of combination of Example 11 and Vancomycin on VRE (V583), CFU counts; type: cell-based; conditions: for avg. CFU: VRE V583 OD 0.001, 18 h
# Method: The mixture (200 μL) was incubated at 37° C. for 18 h Controls were performed without bacteria-vehicle (DMSO), Vancomycin vehicle (water) and BHI controls that use those as treatment to the inoculum, to ensure no previous bacterial contamination in the reagents. Bacterial CFU were counted as standard methods using serial dilution plated on BHI plates to determine the effect of each treatment.
# E. faecalis OG1RF [9] = test: Effect of combination of Gentamicin and Example 11 on E. faecalis OG1RF in vitro (FIG. 7); type: cell-based, Enterococcus faecalis; conditions: agent alone
# [10] = 2 mg/kg intraperitoneally 24 hours post-infection, agent alone
# [11] = combination of Gentamicin and Example 49, 2 mg/kg intraperitoneally
# [12] = 3 mg/kg intraperitoneally 24 hours post-infection, agent alone
# [13] = combination of Vancomycin and Example 49, 3 mg/kg intraperitoneally
Molecule,MBC (Streptococcus),MBC (E. faecalis),MIC (E. faecalis),CFUs/ml (MRSA [1]; MRSA OD 0.1),CFUs/ml (MRSA [1]; MRSA OD 1),MIC (MRSA [2]),MBC (MRSA [2]),CFUs/ml (MRSA [3]; MRSA OD 0.001),CFUs/ml (MRSA [3]; MRSA OD 0.1),CFUs/ml (MRSA [3]; MRSA OD 1),reduction of bacterial titers in the bladders (E. faecalis OG1RF [4]; [10]),reduction of bacterial titers on catheters (E. faecalis OG1RF [4]; [10]),reduction of bacterial titers in the bladders (E. faecalis OG1RF [5]; [12]),reduction of bacterial titers on the catheters (E. faecalis OG1RF [5]; [12]),"reduction of bacterial titers in the bladder [7, 12]","reduction of bacterial titers on the catheter [7, 12]",other results
"CCCCCOc1ccc(-c2sc3c(OC)c(Cc4cccc5ccccc45)cc(=O)n3c2C(=O)O)cc1C [Example 8, 5-Methoxy-4-[(1-naphthyl)methyl]-2-oxo-8-[4-(pentyloxy)-3-methyl-phenyl]-7-thia-1-azabicyclo[4.3.0]nona-3,5,8-triene-9-carboxylic acid]",7 µM,12.5 µM,25 µM,1.7E+04 CFUs/ml,1E+06 CFUs/ml,12 µM,13 µM,4.0E+05 CFUs/ml,6.0E+06 CFUs/ml,6.0E+07 CFUs/ml,,,,,,,
"CCCCOc1ccc(-c2sc3c(OC)c(Cc4cccc5ccccc45)cc(=O)n3c2C(=O)O)cc1C [Example 9, 8-(4-Butoxy-3-methyl-phenyl)-5-methoxy-4-[(1-naphthyl)methyl]-2-oxo-7-thia-1-azabicyclo[4.3.0]nona-3,5,8-triene-9-carboxylic acid]",8 µM,12.5 µM,39 µM,2.6E+04 CFUs/ml,3E+06 CFUs/ml,17 µM,37 µM,8.0E+04 CFUs/ml,4.4E+06 CFUs/ml,5.0E+07 CFUs/ml,,,,,,,
"CCCCCOc1ccc(-c2sc3c(OC)c(Cc4c5ccccc5cc5ccccc45)cc(=O)n3c2C(=O)O)cc1C [Example 49, 7-(anthracen-9-ylmethyl)-8-methoxy-2-(3-methyl-4-(pentyloxy)phenyl)-5-oxo-thiazolo[3,2-a]pyridine-3-carboxylic acid]",,,,,,,,,,,about 0.2 log units,~0.5 log units,about 1 log unit,about 1 log unit,about 0.5 log units,no effect,"reduction of bacterial titers in the bladder (E. faecalis OG1RF [4]; [11]): about 2 log units; reduction of bacterial titers on catheters (E. faecalis OG1RF [4]; [11]): about 1.5 log units; reduction of bacterial titers in the bladder (E. faecalis OG1RF [5]; [13]): about 2 log units; reduction of bacterial titers on the catheters (E. faecalis OG1RF [5]; [13]): about 2 log units; reduction of bacterial titers in the bladder (E. faecalis OG1RF [6]): about 1.5 log units; reduction of bacterial titers on the catheters (E. faecalis OG1RF [6]): about 1.5 log units; reduction of bacterial titers in the bladder [7, 13]: about 2 log units; reduction of bacterial titers on the catheter [7, 13]: about 1 log unit"
"CN[C@H](CC(C)C)C(=O)N[C@H]1C(=O)N[C@@H](CC(N)=O)C(=O)N[C@H]2C(=O)N[C@H]3C(=O)N[C@H](C(=O)N[C@H](C(=O)O)c4cc(O)cc(O)c4-c4cc3ccc4O)[C@H](O)c3ccc(c(Cl)c3)Oc3cc2cc(c3O[C@@H]2O[C@H](CO)[C@@H](O)[C@H](O)[C@H]2O[C@H]2C[C@](C)(N)[C@H](O)[C@H](C)O2)Oc2ccc(cc2Cl)[C@H]1O [Vancomycin, vancomycin]",,,,,,,,,,,,,did not result in reduction,did not result in reduction,0.3 log units,no effect,"avg. CFU ([8]; Experiment 1, Vancomycin 1 μg/ml alone (Control)): 1.20E+09 CFU; avg. CFU ([8]; Experiment 1, Vancomycin 2 μg/ml alone (Control)): 1.35E+09 CFU; avg. CFU ([8]; Experiment 1, Vancomycin 4 μg/ml alone (Control)): 5.00E+08 CFU; avg. CFU ([8]; Experiment 1, Vancomycin 8 μg/ml alone (Control)): 4.00E+08 CFU; avg. CFU ([8]; Experiment 1, Vancomycin 16 μg/ml alone (Control)): 3.00E+08 CFU; avg. CFU ([8]; Experiment 1, Vancomycin 32 μg/ml alone (Control)): 5.50E+08 CFU; avg. CFU ([8]; Experiment 1, Vancomycin 64 μg/ml alone (Control)): 4.00E+07 CFU; avg. CFU ([8]; Experiment 2, Vancomycin 1 μg/ml alone (Control)): 1.70E+09 CFU; avg. CFU ([8]; Experiment 2, Vancomycin 2 μg/ml alone (Control)): 1.40E+09 CFU; avg. CFU ([8]; Experiment 2, Vancomycin 4 μg/ml alone (Control)): 8.50E+08 CFU; avg. CFU ([8]; Experiment 2, Vancomycin 8 μg/ml alone (Control)): 8.50E+08 CFU; avg. CFU ([8]; Experiment 2, Vancomycin 16 μg/ml alone (Control)): 4.50E+08 CFU; avg. CFU ([8]; Experiment 2, Vancomycin 32 μg/ml alone (Control)): 1.95E+06 CFU; avg. CFU ([8]; Experiment 2, Vancomycin 64 μg/ml alone (Control)): 6.00E+04 CFU; effect on the bacterial growth ([8]; Vancomycin alone at a concentration below 64 μg/ml, VRE V583): no or no substantial effect"
gentamicin [reference compound],,,,,,,,,,,did not result in reduction,did not result in reduction,,,,,number of observed bacterial CFUs/ml (E. faecalis OG1RF [9]): did not result in a decrease

# Reference: patent US12472168B2, “Ring-fused thiazolino 2-pyridones, methods for preparation thereof and their use in the treatment and/or prevention of a disease involving gram-positive bacteria” (Quretech Bio AB, priority 2017, dated 2025)
